Measured values from patent US4812469A, “Acetamides derived from 2,3-dihydro-3-phenyl-2-benzofuranone” (Adir Et Cie, priority 1987, dated 1989).
Where a name gives a salt, the structure may show the parent alone. Read-outs that look alike come from different tables or passages of the source.

Tests used:
[1] = test system: survival of cerebral tissue during acute hypoxia; test: Acute hypobaric hypoxia in mice, survival time of the brain (final respiratory gasp); type: in vivo, mice (male CD1)
Description: (§1) The compounds of the present invention were tested in respect of their capacity to prolong the survival of cerebral tissue during acute hypoxia in mice, or to maintain the level of tissue energy-rich compounds in rats subjected to a fall in the oxygen supply [Pharmacology of Cerebral Ischemia, ([…]) p. 334-339 Elsevier Science Publishers B.V., J. Krieglstein ed.]. […] Forsch. Drug Res. (1986), 36 II No. 9, p. 1314-1320].
The survival of the brain is assessed by measuring the time at which the final respiratory gasp is observed.
The survival time of a treated batch is compared with that of a control batch receiving only the solvent.

[2] = test system: tissue energy-rich compounds (ATP, ADP, AMP) of the brain; test: Acute normobaric hypoxia in rats, brain tissue energy-rich compounds (ATP level and energy content); type: in vivo, rats (male Fischer 344); conditions: for % inhibition of the effects of hypoxia: ATP / % inhibition of the effects of hypoxia: EC (energy content): 3% oxygen for 2 minutes
Description: as §1
Whereas the control rats breathe a gaseous mixture containing 21% of oxygen and 79% of nitrogen, the rats subjected to hypoxia breath a mixture of 3% oxygen and 97% nitrogen for 2 minutes.
At the end of the hypoxic period, the animals are rapidly sacrificed by total immersion in liquid nitrogen. The frozen brain is removed and the energy-rich compounds (ATP, ADP, AMP) are extracted and assayed by the luciferin luminescence method.
The tissue energy content (EC) is calculated according to ATKINSON's formula: [formula]

[3] = Mus musculus, ip, 30 mg/kg I.P., 30 minutes before hypoxia (160 mbar), mice, vs control batch, read-out: Percentage increase in the survival time
[4] = Mus musculus, ip, 100 mg/kg I.P., 30 minutes before hypoxia (160 mbar), mice, vs control batch, read-out: Percentage increase in the survival time
[5] = Mus musculus, ip, read-out: Percentage increase in the survival time
[6] = 100 mg/kg I.P., listed as pyritinol

## NC(=O)Cc1ccc2c(c1)C(c1ccccc1)C(=O)O2 (centres unmarked) [Example 1, 2-(2,3-Dihydro-2-oxo-3-phenyl-5-benzofuranyl)acetamide]
[1]; Mus musculus, ip, 3 mg/kg I.P., 30 minutes before hypoxia (160 mbar), mice, vs control batch, read-out: Percentage increase in the survival time
  ILS at 3 mg/kg: 24%
[1]; [3]
  ILS at 30 mg/kg: 46%
[1]; [4]
  ILS at 100 mg/kg: 170%
[2]; 30 mg/kg I.P.
  % inhibition of the effects of hypoxia: ATP: 64.6%
  % inhibition of the effects of hypoxia: EC (energy content): 66%
[2]; 30 mg/kg, compared with meclofenoxate 300 mg/kg
  effect on the ATP level and the energy content (in words): Such an effect is observed with a dose of 30 mg/kg

## O=C1Oc2ccc(CC(=O)N3CCN(c4ccc(C(F)(F)F)cn4)CC3)cc2C1c1ccccc1 (centres unmarked) [Example 3, 2-(2,3-Dihydro-2-oxo-3-phenyl-5-benzofuranyl)-1-[4-(5-trifluoromethyl-2-pyridyl)piperazinyl]-1-oxoethane]
[1]; [3]
  ILS at 30 mg/kg: 36%
[1]; [4]
  ILS at 100 mg/kg: 57%

## O=C1Oc2ccc(CC(=O)N3CCN(Cc4ccc5c(c4)OCO5)CC3)cc2C1c1ccccc1 (centres unmarked) [Example 4]
[1]; [5]
  ILS at 3 mg/kg: 43%
  ILS at 10 mg/kg: 49%
  ILS at 30 mg/kg: 54%
  ILS at 100 mg/kg: 133%

## CN1CCN(C(=O)Cc2ccc3c(c2)C(c2ccccc2)C(=O)O3)CC1 (centres unmarked) [Example 5, 2-(2,3-Dihydro-2-oxo-3-phenyl-5-benzofuranyl)-1-(4-methylpiperazinyl)-1-oxoethane tartrate]
[1]; [5]
  ILS at 100 mg/kg: 111%

## NC(=O)Cc1cccc2c1OC(=O)C2c1ccccc1 (centres unmarked) [Example 8, 2-(2,3-Dihydro-2-oxo-3-phenyl-7-benzofuranyl)acetamide]
[1]; [4]
  ILS at 100 mg/kg: 13%

## NC(=O)Cc1cc(Cl)cc2c1OC(=O)C2c1ccccc1 (centres unmarked) [Example 9, 2-(5-Chloro-2,3-dihydro-2-oxo-3-phenyl-7-benzofuranyl)acetamide]
[1]; [4]
  ILS at 100 mg/kg: 23%

## CN(C)CCOC(=O)COc1ccc(Cl)cc1 [Meclofenoxate, meclofenoxate, reference compound]
[1]; [5]
  ILS at 30 mg/kg: 4%
  ILS at 100 mg/kg: 22%
[2]; 300 mg/kg I.P.
  % inhibition of the effects of hypoxia: ATP: 59.7%
  % inhibition of the effects of hypoxia: EC (energy content): 69.6%

## NC(=O)CN1CCCC1=O [Piracetam, piracetam, reference compound]
[1]; [4]
  ILS at 100 mg/kg: 11%

## Cc1ncc(CSSCc2cnc(C)c(O)c2CO)c(CO)c1O [Pyritinol, pyritinol]
[1]; 100 mg/kg, mice, p<0.05
  significance of the protection (brain survival time): significant
[1]; [3]
  ILS at 30 mg/kg: 13%
[1]; [4]
  ILS at 100 mg/kg: 27%
[2]; 30 mg/kg I.P.
  % inhibition of the effects of hypoxia: ATP: 11.1%
  % inhibition of the effects of hypoxia: EC (energy content): 16.6%
[2]; 100 mg/kg I.P.
  % inhibition of the effects of hypoxia: ATP: 23.3%
  % inhibition of the effects of hypoxia: EC (energy content): 35.2%
[2]; [6]
  % inhibition of the effects of hypoxia: ATP: 23%
  % inhibition of the effects of hypoxia: EC (energy content): 35%
